Key:
PDE5A = target: T1, PDE5A (Homo sapiens, UniProt O76074); experiment: Phosphodiesterase 5 HTRF cGMP assay; type: biochemical; details: for IC50: means ± S.D. (n = 4), read-out: PDE5 IC50; for inhibition at 10 µM: read-out: PDE5 % Inhibition at 10 μM
T1 construct: purchased BPS Bioscience, San Diego, CA, USA
Method: All the synthesized acridine derivatives were tested for their in vitro ability to inhibit PDE5A at a screening dose of 10 µM.
The enzyme activities of phosphodiesterase 5 (PDE5) were measured using an HTRF cGMP assay kit (Cisbio, Codolet, France). […] Afterward, the HTRF reagent (cGMP-d2 and anti-cGMP-cryptate) was added for 1 h at 25 °C, and PDE activity was assayed on an HTRF reader (Tecan Infinite F200 Pro).

MDA-MB-435 = experiment: NCI-60 one-dose screen; type: cell-based; details: Homo sapiens; MDA-MB-435, Melanoma panel; single dose 10^−5 M; read-out: Growth inhibition %
Method: (§1) The newly synthesized compounds were screened for their in vitro anticancer activity at the Developmental Therapeutic Program (DTP) of the National Cancer Institute (NCI). The screening involved a panel of 60 human tumor cell lines consisting of 9 tissue types to screen for potential anti-cancer agents. The primary screening of submitted compounds was performed by testing a single dose (10^−5 M) in the full NCI-60 panel. The detailed % inhibition by the tested compounds against the 60 cell lines is shown in Tables S1–S3 in the Supporting Information.

HCT-15 = experiment: NCI-60 one-dose screen; type: cell-based; details: Homo sapiens; HCT-15, Colon Cancer panel; single dose 10^−5 M; read-out: Growth inhibition %
Method: as §1

NCI-H23 = experiment: NCI-60 one-dose screen; type: cell-based; details: Homo sapiens; NCI-H23, Non-small cell lung panel; single dose 10^−5 M; read-out: Growth inhibition %
Method: as §1

HOP-92 = experiment: NCI-60 one-dose screen; type: cell-based; details: Homo sapiens; HOP-92, Non-small cell lung panel; single dose 10^−5 M; read-out: Growth inhibition %
Method: as §1

HL-60(TB) = experiment: NCI-60 one-dose screen; type: cell-based; details: Homo sapiens, Leukemia panel, single dose 10^−5 M, read-out: Growth inhibition %
Method: as §1

OVCAR-3 = experiment: NCI-60 one-dose screen; type: cell-based; details: Homo sapiens; OVCAR-3, Ovarian Cancer panel; single dose 10^−5 M; read-out: Growth inhibition %
Method: as §1

HS 578T = experiment: NCI-60 one-dose screen; type: cell-based; details: Homo sapiens, Breast Cancer panel, single dose 10^−5 M, read-out: Growth inhibition %
Method: as §1

M14 = experiment: NCI-60 one-dose screen; type: cell-based; details: Homo sapiens; M14, Melanoma panel; single dose 10^−5 M; read-out: Growth inhibition %
Method: as §1

EKVX = experiment: NCI-60 one-dose screen; type: cell-based; details: Homo sapiens, Non-small cell lung panel, single dose 10^−5 M, read-out: Growth inhibition %
Method: as §1

MALME-3M = experiment: NCI-60 one-dose screen; type: cell-based; details: Homo sapiens, Melanoma panel, single dose 10^−5 M, read-out: Growth inhibition %
Method: as §1

MDA-MB-231/ATCC = experiment: NCI-60 one-dose screen; type: cell-based; details: Homo sapiens, Breast Cancer panel, single dose 10^−5 M, read-out: Growth inhibition %
Method: as §1

HT29 = experiment: NCI-60 one-dose screen; type: cell-based; details: Homo sapiens, HT-29; HT29, Colon Cancer panel; single dose 10^−5 M; read-out: Growth inhibition %
Method: as §1

SNB-75 = experiment: NCI-60 one-dose screen; type: cell-based; details: Homo sapiens; SNB-75, CNS Cancer panel; single dose 10^−5 M; read-out: Growth inhibition %
Method: as §1

OVCAR-8 = experiment: NCI-60 one-dose screen; type: cell-based; details: Homo sapiens; OVCAR-8, Ovarian Cancer panel; single dose 10^−5 M; read-out: Growth inhibition %
Method: as §1

MOLT-4 = experiment: NCI-60 one-dose screen; type: cell-based; details: Homo sapiens; MOLT-4, Leukemia panel; single dose 10^−5 M; read-out: Growth inhibition %
Method: as §1

OVCAR-4 = experiment: NCI-60 one-dose screen; type: cell-based; details: Homo sapiens; OVCAR-4, Ovarian Cancer panel; single dose 10^−5 M; read-out: Growth inhibition %
Method: as §1

T-47D = experiment: NCI-60 one-dose screen; type: cell-based; details: Homo sapiens, T47D, Breast Cancer panel, single dose 10^−5 M, read-out: Growth inhibition %
Method: as §1

OVCAR-5 = experiment: NCI-60 one-dose screen; type: cell-based; details: Homo sapiens; OVCAR-5, Ovarian Cancer panel; single dose 10^−5 M; read-out: Growth inhibition %
Method: as §1

TK-10 = experiment: NCI-60 one-dose screen; type: cell-based; details: Homo sapiens; TK-10, Renal Cancer panel; single dose 10^−5 M; read-out: Growth inhibition %
Method: as §1

NCI-H322M = experiment: NCI-60 one-dose screen; type: cell-based; details: Homo sapiens, Non-small cell lung panel, single dose 10^−5 M, read-out: Growth inhibition %
Method: as §1

SK-MEL-2 = experiment: NCI-60 one-dose screen; type: cell-based; details: Homo sapiens; SK-MEL-2, Melanoma panel; single dose 10^−5 M; read-out: Growth inhibition %
Method: as §1

NCI-H460 = experiment: NCI-60 one-dose screen; type: cell-based; details: Homo sapiens; NCI-H460, Non-small cell lung panel; single dose 10^−5 M; read-out: Growth inhibition %
Method: as §1

IGROV1 = experiment: NCI-60 one-dose screen; type: cell-based; details: Homo sapiens, IGROV-1; IGROV1, Ovarian Cancer panel; single dose 10^−5 M; read-out: Growth inhibition %
CCRF-CEM = experiment: NCI-60 one-dose screen; type: cell-based; details: Homo sapiens, Leukemia panel, single dose 10^−5 M, read-out: Growth inhibition %
[1] = test system: panel of 60 human tumor cell lines; experiment: NCI 60-cell line one-dose screen (mean); type: cell-based; details: mean of the 60 cell lines, single dose 10^−5 M, read-out: Mean % Growth Inhibition
Method: as §1

CCD-966SK = experiment: MTT cell proliferation assay, CCD-966SK; details: CCD966SK skin fibroblast, 72 h MTT
SF-268 = experiment: NCI-60 one-dose screen; type: cell-based; details: Homo sapiens; SF-268, CNS Cancer panel; single dose 10^−5 M; read-out: Growth inhibition %
LOX IMVI = experiment: NCI-60 one-dose screen; type: cell-based; details: Homo sapiens, Melanoma panel, single dose 10^−5 M, read-out: Growth inhibition %
HCT-116 = experiment: MTT cell proliferation assay, HCT-116
Method: In the MTT assay, 96-well culture plates were used. A total of 7 × 10^4 cells per well were seeded, and test materials were added to the cells at various concentrations [47, 48]. Human cancer and non-cancer cell lines were purchased commercially from the American Type Culture Collection (ATCC). After 72 h, the cytotoxicity of the compounds and paclitaxel (as a positive control group) was detected using the MTT method (thiazolyl blue tetrazolium bromide, Sigma-M2128). Absorbance values at 570 and 620 nm (OD = OD570–OD620) were measured using an ELISA reader (Anthos Labtec Instruments, Salzburg, Austria).

Row | SMILES | IC50 (PDE5A) [µM] | inhibition at 10 µM (PDE5A) [%] | inhibition at 10 µM (MDA-MB-435) [%] | inhibition at 10 µM (HCT-15) [%] | inhibition at 10 µM (NCI-H23) [%] | inhibition at 10 µM (HOP-92) [%] | inhibition at 10 µM (OVCAR-3) [%] | inhibition at 10 µM (HS 578T) [%] | inhibition at 10 µM (M14) [%] | inhibition at 10 µM (EKVX) [%] | inhibition at 10 µM (MALME-3M) [%] | inhibition at 10 µM (MDA-MB-231/ATCC) [%] | inhibition at 10 µM (HT29) [%] | inhibition at 10 µM (SNB-75) [%] | inhibition at 10 µM (OVCAR-8) [%] | inhibition at 10 µM (MOLT-4) [%] | inhibition at 10 µM (OVCAR-4) [%] | inhibition at 10 µM (T-47D) [%] | inhibition at 10 µM (OVCAR-5) [%] | inhibition at 10 µM (TK-10) [%] | further results
1 | COc1ccc(CNc2c3ccccc3nc3ccccc23)cc1 [Compound 7, Acridin-9-yl-(4-methoxybenzyl)-amine] | > 10 | < 0 | 59.8 | 78 | 61.2 | 75.5 | 51.9 | 42 | 62.9 | 50.3 | 60 | 52.6 | 80.7 | 38.2 | 72.3 | 90.6 | 59.7 | 55.1 | 53.6 | 50.5 | inhibition at 10 µM (HL-60(TB)): 57%; inhibition at 10 µM (NCI-H322M): 52.9%; inhibition at 10 µM (SK-MEL-2): 39.9%; inhibition at 10 µM (NCI-H460): 90.3%; inhibition at 10 µM (IGROV1): 72.8%; inhibition at 10 µM (CCRF-CEM): 61%; inhibition at 10 µM [1]: 63.2%; % Inhibition at 10 µM (CCD-966SK): 13.09 ± 2.52%; inhibition at 10 µM (SF-268): 36.6%; inhibition at 10 µM (LOX IMVI): 79.1%
2 | Cc1ccc2nc3ccccc3c(NCc3ccc(Cl)cc3)c2c1 [Compound 31, (4-Chlorobenzyl)-(2-methyl-acridin-9-yl)-amine] | 4.78 ± 1.48 | 65.7 ± 7.48 | 29.7 | 85.5 | 54 | 105 | 29.1 | 22.2 | 117 | 44.6 | 114 | 62.3 | 94.7 | 33.5 | 47.6 | 99.9 | 62.5 | 42.1 | 49.3 | 17.6 | inhibition at 10 µM (NCI-H322M): 44.1%; inhibition at 10 µM (SK-MEL-2): -1.95%; inhibition at 10 µM (NCI-H460): 70.5%; inhibition at 10 µM (IGROV1): 72.9%; inhibition at 10 µM (CCRF-CEM): 81.8%; inhibition at 10 µM [1]: 66.9%; % Inhibition at 10 µM (CCD-966SK): 60.02 ± 3.07%; IC50 (CCD-966SK; read-out: IC50 μM): 4.96 ± 0.62 µM; inhibition at 10 µM (SF-268): 20.9%; inhibition at 10 µM (LOX IMVI): 157%; % Inhibition at 10 µM (HCT-116; 10 µM, 72 h MTT, means ± SD): 55.53 ± 1.69%; IC50 (HCT-116; read-out: IC50 μM, 72 h MTT, means ± SD, three experiments): 7.95 ± 0.65 µM
3 | COc1cccc(CNc2c3ccccc3nc3ccccc23)c1 [Compound 6, Acridin-9-yl-(3-methoxybenzyl)-amine] | > 10 | 39.7 ± 3.2 | 57 | 75.6 | 62.7 | 74.5 | 45.2 | 44.4 | 64.8 | 48.2 | 56 | 50.1 | 81.3 | 43.1 | 68.1 | 93.6 | 56.4 | 54.1 | 54.1 | 48.3 | inhibition at 10 µM (HL-60(TB)): 59.1%; inhibition at 10 µM (NCI-H322M): 56%; inhibition at 10 µM (SK-MEL-2): 32.1%; inhibition at 10 µM (NCI-H460): 90%; inhibition at 10 µM (IGROV1): 71.7%; inhibition at 10 µM (CCRF-CEM): 69.8%; inhibition at 10 µM [1]: 63.1%; % Inhibition at 10 µM (CCD-966SK): 54.31 ± 0.98%; inhibition at 10 µM (SF-268): 28.8%; inhibition at 10 µM (LOX IMVI): 80.2%
4 | COc1ccc(CNc2c3ccccc3nc3ccccc23)cc1OC [Compound 18, Acridin-9-yl-(3,4-dimethoxybenzyl)-amine] | 9.77 ± 3.11 | 51.2 ± 5.26 | 70.6 | 89.8 | 84.9 | 110 | 56.3 | 62.8 | 82.3 | 84.8 | 92.1 | 80.6 | 95.6 | 75.2 | 76.2 | 89.4 | 78.6 | 74.2 | 72.5 | 67.7 | inhibition at 10 µM (HL-60(TB)): 87.3%; inhibition at 10 µM (NCI-H322M): 70.2%; inhibition at 10 µM (SK-MEL-2): 61.4%; inhibition at 10 µM (NCI-H460): 93.8%; inhibition at 10 µM (IGROV1): 89.1%; inhibition at 10 µM (CCRF-CEM): 69.5%; inhibition at 10 µM [1]: 81.6%; % Inhibition at 10 µM (CCD-966SK): 32.27 ± 0.58%; inhibition at 10 µM (SF-268): 60.4%; inhibition at 10 µM (LOX IMVI): 104%
5 | COc1ccc(CNc2c3ccccc3nc3ccccc23)c(OC)c1 [Compound 17, Acridin-9-yl-(2,4-dimethoxybenzyl)-amine] | 6.77 ± 1.31 | 60.2 ± 5.89 | 61.3 | 74 | 65.1 | 114 | 30.8 | 31.1 | 56.2 | 48.9 | 33 | 56.4 | 86.2 | 35.5 | 62.2 | 81.5 | 60.3 | 47.1 | 49.7 | 45.6 | inhibition at 10 µM (HL-60(TB)): 63.1%; inhibition at 10 µM (NCI-H322M): 60%; inhibition at 10 µM (SK-MEL-2): 5.98%; inhibition at 10 µM (NCI-H460): 83.3%; inhibition at 10 µM (IGROV1): 77.5%; inhibition at 10 µM (CCRF-CEM): 44.6%; inhibition at 10 µM [1]: 60.8%; % Inhibition at 10 µM (CCD-966SK): 35.11 ± 0.42%; inhibition at 10 µM (SF-268): 34.3%; inhibition at 10 µM (LOX IMVI): 82.3%
